Test results taken from US12509435B2, “Compounds for selective binding to estrogen receptors alpha/beta relative to GPER/GPR30 and methods of treating disease states and conditions mediated through these receptors” (UNM RAINFOREST INNOVATIONS, priority 2019, dated 2025).
Changes are numbered by the printed parent chain.

Experiments:
Format in all cases: cell-based
ERα = target: T1, ERα (Homo sapiens, UniProt P03372); test: Degradation of ERα in MCF-7 cells, Western blot; conditions: indicated concentrations
T1 construct: endogenous in cells; host or cells: MCF-7
T1 sequence (P03372 1-595): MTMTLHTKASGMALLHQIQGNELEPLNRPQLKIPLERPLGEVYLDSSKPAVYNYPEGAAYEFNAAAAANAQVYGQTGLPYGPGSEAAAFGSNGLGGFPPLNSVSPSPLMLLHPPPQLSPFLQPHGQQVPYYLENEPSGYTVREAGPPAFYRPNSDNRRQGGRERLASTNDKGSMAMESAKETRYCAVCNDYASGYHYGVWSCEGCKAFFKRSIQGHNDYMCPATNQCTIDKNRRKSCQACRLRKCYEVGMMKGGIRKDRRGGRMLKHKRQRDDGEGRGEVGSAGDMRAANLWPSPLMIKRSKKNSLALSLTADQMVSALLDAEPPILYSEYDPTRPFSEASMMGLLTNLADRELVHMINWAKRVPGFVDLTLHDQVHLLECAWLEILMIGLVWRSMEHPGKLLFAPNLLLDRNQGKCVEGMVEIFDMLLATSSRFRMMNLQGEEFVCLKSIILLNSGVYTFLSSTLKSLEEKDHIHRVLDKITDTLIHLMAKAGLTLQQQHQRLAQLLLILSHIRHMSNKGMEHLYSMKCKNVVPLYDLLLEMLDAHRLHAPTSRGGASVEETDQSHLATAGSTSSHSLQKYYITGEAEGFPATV
Method: MCF-7 were treated with the indicated compounds and ERα protein levels were assessed by Western blot (top panel). Actin served as a loading control (bottom panel). Quantification of the western blot is shown on the right.

[1] = tested on: Tamoxifen-resistant MCF-7 cells (TamR) and long-term estrogen-deprived MCF-7 cells (LTED); test: Cell viability in cell line models of endocrine resistance after 5 days; conditions: TamR and LTED MCF-7 cells, normalized to DMSO-treated cells
From the text: Cells were a gift from Dr. Donald McDonnell (Duke University).

ERα-Y537S = target: T2, ERα-Y537S (Homo sapiens, UniProt P03372, Y537S); test: Degradation of HA-ERα-Y537S mutant in transfected HEK293 cells, Western blot; conditions: HEK293 cells transfected with HA-ERα-Y537S, Western blot relative to actin
T2 construct: host or cells: HEK293
T2 sequence (P03372 1-595 Y537S): T1 sequence (P03372 1-595) with Y537S
From the text: HEK293 cells transfected with the HA-ERα-Y537S mutant were stimulated with the indicated compounds and HA-ERα-Y537S protein levels assessed by Western blot (left) and quantitated relative to actin (right).

degradation of ERα protein levels (ERα): Dose-dependent degradation of ERα | degradation of HA-ERα-Y537S protein levels (ERα-Y537S): induced degradation of ERα-Y537S
Structure (SMILES): CCCCN(C)C(=O)CCCCCCCCCCCC1=CCC2(CO)COC(c3ccc(O)cc3)C1C2 (stereo not drawn) [AB-82P, N-butyl-12-(1-(hydroxymethyl)-4-(4-hydroxyphenyl)-3-oxabicyclo[3.3.1]non-6-en-6-yl)-N-methyldodecanamide]
effect on cell viability in models of endocrine resistance [1]: inhibitory effects
